Measured values: ChEMBL document CHEMBL4725268, “Anticonvulsant and analgesic in neuropathic pain activity in a group of new aminoalkanol derivatives” (Bioorg Med Chem Lett, 2020)
Calls of active or inactive are those of the source. The calls are words filed in the database; no cut-off is given here.

Columns and labels:
Mus musculus [1] = assay: Anticonvulsant activity in ip dosed albino mouse assessed as protection against 50 mA current-induced seizure by maximal electroshock seizure test; type: functional
Mus musculus [2] = organism: Mus musculus; assay: animal or person; details: Swiss, ip
Description: Anticonvulsant activity in ip dosed Swiss mouse assessed as protection against current-induced seizure by maximal electroshock seizure test

Mus musculus [3] = assay: Anticonvulsant activity in ip dosed mouse assessed as protection against current-induced seizure by maximal electroshock seizure test; type: functional
[4] = Toxicity in mouse assessed as lethality at 50 mg/kg, ip; type: organism-based; details: in vivo
[5] = Toxicity in mouse assessed as lethality at 30 mg/kg, ip; type: organism-based; details: in vivo
[6] = Toxicity in mouse assessed as lethality at 20 mg/kg, ip; type: organism-based; details: in vivo
[7] = Toxicity in ip dosed mouse assessed as motor impairment by rotarod test; type: organism-based; details: in vivo
[8] = Protection index, ratio of TD50 for toxicity in ip dosed mouse to ED50 for anticonvulsant activity in ip dosed mouse; type: organism-based; details: in vivo, read-out: PI
[9] = target: T1, 5-hydroxytryptamine receptor 1A (Homo sapiens, UniProt P08908); assay: Binding affinity to 5-HT1A (unknown origin)
T1 sequence (P08908 whole entry): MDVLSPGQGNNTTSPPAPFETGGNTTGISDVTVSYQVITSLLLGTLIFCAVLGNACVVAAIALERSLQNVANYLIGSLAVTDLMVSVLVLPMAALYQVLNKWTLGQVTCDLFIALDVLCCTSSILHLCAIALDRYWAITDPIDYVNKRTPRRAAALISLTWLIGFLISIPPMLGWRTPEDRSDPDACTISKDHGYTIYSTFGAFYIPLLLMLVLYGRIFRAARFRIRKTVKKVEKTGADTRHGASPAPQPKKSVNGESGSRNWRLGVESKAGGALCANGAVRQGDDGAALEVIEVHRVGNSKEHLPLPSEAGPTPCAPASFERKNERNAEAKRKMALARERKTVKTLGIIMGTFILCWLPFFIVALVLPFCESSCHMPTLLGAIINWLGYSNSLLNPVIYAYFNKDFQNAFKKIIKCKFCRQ

Enterococcus faecalis = assay: Antimicrobial activity against Enterococcus faecalis ATCC 29212 assessed as reduction in bacterial growth at 0.195 to 100 ug/ml by serial dilution method; type: organism-based; details: in vivo, dose 0.195-100 µg/ml
Escherichia coli [10] = assay: Antimicrobial activity against Escherichia coli ATCC 25922 assessed as reduction in bacterial growth at 0.195 to 100 ug/ml by serial dilution method; type: organism-based; details: in vivo, dose 0.195-100 µg/ml
Escherichia coli [11] = assay: Antimicrobial activity against Escherichia coli ATCC 35218 assessed as reduction in bacterial growth at 0.195 to 100 ug/ml by serial dilution method; type: organism-based; details: in vivo, dose 0.195-100 µg/ml
Staphylococcus aureus [12] = assay: Antimicrobial activity against Staphylococcus aureus ATCC 25923 assessed as reduction in bacterial growth at 0.195 to 100 ug/ml by serial dilution method; type: organism-based; details: in vivo, dose 0.195-100 µg/ml
Staphylococcus aureus [13] = assay: Antimicrobial activity against clinical strain Staphylococcus aureus assessed as reduction in bacterial growth at 0.195 to 100 ug/ml by serial dilution method; type: organism-based; details: in vivo, dose 0.195-100 µg/ml
Salmonella enterica = assay: Antimicrobial activity against Salmonella enterica ATCC 51957 assessed as reduction in bacterial growth at 0.195 to 100 ug/ml by serial dilution method; type: organism-based; details: in vivo, dose 0.195-100 µg/ml
Bacteroides fragilis = assay: Antimicrobial activity against Bacteroides fragilis ATCC 25285 assessed as reduction in bacterial growth at 0.195 to 100 ug/ml by disk diffusion method; type: organism-based; details: in vivo, dose 0.195-100 µg/ml
Hoylesella loescheii = assay: Antimicrobial activity against Prevotella loescheii ATCC 15930 assessed as reduction in bacterial growth at 0.195 to 100 ug/ml by disk diffusion method; type: organism-based, DSM 19665 = JCM 12249 = ATCC 15930; details: in vivo, dose 0.195-100 µg/ml
[14] = Antimicrobial activity against clinical strain Bifidobacterium assessed as reduction in bacterial growth at 0.195 to 100 ug/ml by disk diffusion method; details: dose 0.195-100 µg/ml
Clostridioides difficile = assay: Antimicrobial activity against clinical strain Clostridium difficile assessed as reduction in bacterial growth at 0.195 to 100 ug/ml by disk diffusion method; type: organism-based; details: in vivo, dose 0.195-100 µg/ml
[15] = Toxicity in mouse assessed as lethality at 70 mg/kg, ip; type: organism-based; details: in vivo
[16] = target: T2, 5-hydroxytryptamine receptor 1A (Homo sapiens) (UniProt P08908); assay: Binding affinity to 5-HT1A (unknown origin) at 10^-5 M; details: dose 1.0 10^-5M
T2 sequence (whole entry): T1 sequence (P08908 whole entry)

Cc1cccc(C)c1OCC(C)N (racemic) [MEXILETINE]
ED50 (Mus musculus [1]): 1.2 mg/kg | ED50 (Mus musculus [2]): 11.9 mg/kg

Cc1ccc(OCCOCCN[C@H](C)CO)c(C)c1
ED50 (Mus musculus [3]): 27.4 mg/kg | Activity [4]: Non-Toxic | Activity [5]: Non-Toxic | Activity [6]: Non-Toxic | TD50 [7]: 93.2 mg/kg | selectivity ratio [8]: 3.4 | Ki [9]: 4.8 µM | Activity (Enterococcus faecalis): Non-Toxic | Activity (Escherichia coli [10]): Non-Toxic | Activity (Escherichia coli [11]): Non-Toxic | Activity (Staphylococcus aureus [12]): Non-Toxic | Activity (Staphylococcus aureus [13]): Non-Toxic | Activity (Salmonella enterica): Non-Toxic | Activity (Bacteroides fragilis): Non-Toxic | Activity (Hoylesella loescheii): Non-Toxic | Activity [14]: Non-Toxic | Activity (Clostridioides difficile): Non-Toxic

Cc1ccc(OCCCCN[C@H](C)CO)c(C)c1
ED50 (Mus musculus [3]): 52.5 mg/kg | Activity [4]: Non-Toxic | Activity [15]: Non-Toxic | TD50 [7]: 136 mg/kg | selectivity ratio [8]: 2.59 | Activity [16]: inactive | Activity (Enterococcus faecalis): Non-Toxic | Activity (Escherichia coli [10]): Non-Toxic | Activity (Escherichia coli [11]): Non-Toxic | Activity (Staphylococcus aureus [12]): Non-Toxic | Activity (Staphylococcus aureus [13]): Non-Toxic | Activity (Salmonella enterica): Non-Toxic | Activity (Bacteroides fragilis): Non-Toxic | Activity (Hoylesella loescheii): Non-Toxic | Activity [14]: Non-Toxic | Activity (Clostridioides difficile): Non-Toxic
